Measurements published in patent US20230201168A1, “NEW THERAPY FOR THE TREATMENT OF TUMORS” (Università degli Studi di Trento, priority 2020, published 2023).

Columns and labels:
[1] = tested on: COMI cells; test: Viability assay (Hoechst 33342/PI), COMI cells; format: cell-based; conditions: Homo sapiens, 48 h, mean±SD
Experimental: (§1) For the evaluation of the effect of Q/D, streptogramins A analogues (alone or in combination with Q) and TMZ on GSCs viability, cells were seeded into 96-well laminin-coated microtiter plates in 150 μL of media. The plates were incubated for 24 h prior to drug treatment. Serial drug dilutions were prepared in PBS to provide a total of seven drug concentrations plus control. 10 μL of these dilutions were added to each well, and the plates were incubated for additional 48 h. Each treatment was performed in technical quadruplicate. After the drug treatments, the cells were stained with Hoechst 33342 (1 μg/mL; Thermo Fisher Scientific, cat. H1399) and Propidium Iodide (PI, 1 μg/mL; Sigma Aldrich, cat. P4170) and incubated for 20 min shaking in the dark. The plates were then read using Operetta-High Content Imaging System (Perkin Elmer) and analyzed using the Harmony Software. The number of viable cells was calculated by subtracting PI positive cells from the total number of cells estimated by Hoechst 33342 staining and normalized on the non treated control.
(§2) Dose-response curves were plotted and growth inhibition 50 (GI50) values calculated using the GraphPad Prism software.

[2] = tested on: VIPI cells; test: Viability assay (Hoechst 33342/PI), VIPI cells; format: cell-based; conditions: Homo sapiens, 48 h, mean±SD
Experimental: as §1, §2

Q: With `Cn1nnc2c(C(N)=O)ncn2c1=O` [TMZ, temozolomide] as the compound, how does the GI50 [1] read?
A: Its GI50 is 96.5 ± 15.2 µM.

Q: And the GI50 [2]?
A: The GI50 was 338 ± 35.5 µM.
